In US10815275B2, “Antimicrobial peptoids with improved selectivity and use thereof” (priority 2018, dated 2020):
≈ marks a conversion by molar mass, not a printed value. Non-standard residues stand in square brackets, D forms with d. Residues, ends and D or L forms follow the SMILES beside them. Nspe = C[C@H](NCC(=O)O)c1ccccc1; Nphe = O=C(O)CNCc1ccccc1; Nlys = NCCCCNCC(=O)O

How the values were obtained:
[1] = tested on: E. coli strain ATCC25922; format: cell-based; conditions: for MBC E. coli: ATCC25922; for MIC E. coli: ATCC25922, 18 h
Description: (§1) In order to measure antimicrobial activity of the peptoids, Gram-positive S. aureus strain KCTC1621, or Gram-negative E. coli strain ATCC25922 was treated with the peptoids prepared in Preparation Example 1, and minimum inhibitory concentrations were measured. Peptoid NOS. 1 and 2 are already known peptoids and were used for the purpose of making a comparison with novel peptoids in terms of antimicrobial activity.
(§2) Specifically, S. aureus strain KCTC1621 or E. coli strain ATCC25922 was inoculated into Mueller Hinton Broth (MHB2) liquid medium on which cations were adjusted, cultured at a temperature of 37° C. for 18 hours, and then subcultured for 4 hours. Thereafter, the strains were diluted with MHB2 liquid medium containing 0.2% bovine serum albumin and 0.01% acetic acid so that each bacterial number was 2×10^5 colony-forming units (CFU) per 1 mL, and dispensed into 96-well microtiter plates at 100 μL each. A peptoid stock which is 40-fold more concentrated than a concentration to be tested was added to each well at 2.5 μL or lower so that the peptoid stock was 2-fold serially diluted using sterile water. Thereafter, the plates were incubated at a temperature of 37° C. for 18 hours.
(§3) Thereafter, absorbance was measured at a wavelength of 600 nm using a microplate reader (Bio-Rad). The lowest peptoid concentration that completely suppresses growth of microorganisms was measured by a minimum inhibitory concentration (MIC) and a minimum bactericidal concentration (MBC), and the measurement results are shown in Table 5 below. Each of the MIC values was calculated as an average value of numerical values obtained through three independent experiments.

[2] = tested on: S. aureus strain KCTC1621; format: cell-based; conditions: for MBC S. aureus: KCTC1621; for MIC S. aureus: KCTC1621, 18 h
Description: as §1, §2, §3

[3] = tested on: red blood cells; experiment: Hemolytic activity on red blood cells; format: cell-based, mouse
Description: In order to identify, through red blood cell hemolytic activity in mice, whether the peptoids synthesized in Preparation Example 1 are cytotoxic, red blood cells isolated from 10 mL of mouse blood were washed three times with phosphate-buffered saline (PBS, mixed solution of 35 mM phosphate buffer/150 mM NaCl, pH 7.4), and then centrifuged at a centrifugal force of 1,000 ×g for 10 minutes. A 10% (v/v) red blood cell solution diluted with PBS was dispensed into a 96-well microtiter plate at 150 μL each, and then a peptide solution was added at 50 μL each. Thereafter, the 96-well microtiter plate was incubated at a temperature of 37° C. for 1 hour.
The incubated 96-well microtiter plate was centrifuged at a centrifugal force of 1,000×g for 5 minutes. Thereafter, supernatant was taken at 100 μL each and transferred to a new 96-well microtiter plate. Then, absorbance at a wavelength of 540 nm was measured (Table 6).
In this case, a value obtained in a case of being treated with 0.1% (v/v) Triton X-100 was set as 100% hemolysis, and hemolytic activity (degree of cell destruction) of the peptoids was calculated using the following Equation 1. In the Equation 1, A is absorbance of the peptoid solution at a wavelength of 540 nm, B is absorbance of 0.1% Triton X-100 at a wavelength of 540 nm, and C is absorbance of the PBS solution at a wavelength of 540 nm. In this case, Peptoid NO. […] Degree of cell destruction (% hemolysis)=(A−C)/(B−C)[…] [Equation 1]
In Table 6, HD10 means a peptoid concentration which causes 10% hemolysis of red blood cells, and HD50 means a peptoid concentration which causes 50% hemolysis of red blood cells. In addition, Hmax is a hemolysis rate (%) at 200 μM which is the highest peptoid concentration used in the experiment.
Hemolytic activity of Peptoid NOS. 1, 18 to 23, and the peptide Pexiganan was measured in the same manner as in Experimental Example 2.

[4] = tested on: E. coli; experiment: Selectivity analysis, HD10 divided by MIC for E. coli; conditions: HD10 of Table 6 divided by MIC for E. coli ATCC25922
Description: In order to identify changes in selectivity depending on alteration of degree of folding in helical structure of peptoids, selectivity of each peptoid was calculated using the resultant values measured in the Experimental Examples 1 and 2. The selectivity was obtained by dividing the HD10 value by the minimum inhibitory concentration for E. coli (Table 8).

MIC E. coli [1]	MIC S. aureus [2]	Selectivity [HD10/MIC (E. coli)] [4]	Compound	MBC E. coli [1]	MBC S. aureus [2]	HD10 [3]	HD50 [3]
25 µM (≈ 43 µg/mL)	3.1 µM (≈ 5.34 µg/mL)	4.5	C[C@@H](c1ccccc1)N(CC(=O)N(CC(=O)N(CCCCN)CC(=O)N(CC(=O)N(CC(=O)N(CCCCN)CC(=O)N(CC(=O)N(CC(=O)N(CCCCN)CC(=O)N(CC(=O)N(CC(N)=O)Cc1ccccc1)Cc1ccccc1)Cc1ccccc1)Cc1ccccc1)Cc1ccccc1)Cc1ccccc1)Cc1ccccc1)C(=O)CNCCCCN [compound 3] (H-[Nlys][Nspe][Nphe][Nlys][Nphe][Nphe][Nlys][Nphe][Nphe][Nlys][Nphe][Nphe]-NH2)	25 µM (≈ 43 µg/mL)	3.1 µM (≈ 5.34 µg/mL)	112.7	> 200
12.5 µM (≈ 21.5 µg/mL)	3.1 µM (≈ 5.34 µg/mL)	–	C[C@@H](c1ccccc1)N(CC(=O)N(CC(=O)N(CCCCN)CC(=O)N(CC(=O)N(CC(=O)N(CCCCN)CC(=O)N(CC(=O)N(CC(N)=O)Cc1ccccc1)Cc1ccccc1)Cc1ccccc1)Cc1ccccc1)Cc1ccccc1)C(=O)CN(CCCCN)C(=O)CN(Cc1ccccc1)C(=O)CN(Cc1ccccc1)C(=O)CNCCCCN [compound 5] (H-[Nlys][Nphe][Nphe][Nlys][Nspe][Nphe][Nlys][Nphe][Nphe][Nlys][Nphe][Nphe]-NH2)	12.5 µM (≈ 21.5 µg/mL)	3.1 µM (≈ 5.34 µg/mL)	–	195.0
12.5 µM (≈ 21.5 µg/mL)	3.1 µM (≈ 5.34 µg/mL)	–	C[C@@H](c1ccccc1)N(CC(=O)N(CCCCN)CC(=O)N(CC(=O)N(CC(=O)N(CCCCN)CC(=O)N(CC(=O)N(CC(N)=O)Cc1ccccc1)Cc1ccccc1)Cc1ccccc1)Cc1ccccc1)C(=O)CN(Cc1ccccc1)C(=O)CN(CCCCN)C(=O)CN(Cc1ccccc1)C(=O)CN(Cc1ccccc1)C(=O)CNCCCCN [compound 6] (H-[Nlys][Nphe][Nphe][Nlys][Nphe][Nspe][Nlys][Nphe][Nphe][Nlys][Nphe][Nphe]-NH2)	25 µM (≈ 43 µg/mL)	3.1 µM (≈ 5.34 µg/mL)	101.4	185.4
12.5 µM (≈ 21.5 µg/mL)	3.1 µM (≈ 5.34 µg/mL)	–	C[C@@H](c1ccccc1)N(CC(=O)N(CC(=O)N(CCCCN)CC(=O)N(CC(=O)N(CC(N)=O)Cc1ccccc1)Cc1ccccc1)Cc1ccccc1)C(=O)CN(CCCCN)C(=O)CN(Cc1ccccc1)C(=O)CN(Cc1ccccc1)C(=O)CN(CCCCN)C(=O)CN(Cc1ccccc1)C(=O)CN(Cc1ccccc1)C(=O)CNCCCCN [compound 7] (H-[Nlys][Nphe][Nphe][Nlys][Nphe][Nphe][Nlys][Nspe][Nphe][Nlys][Nphe][Nphe]-NH2)	25 µM (≈ 43 µg/mL)	3.1 µM (≈ 5.34 µg/mL)	–	> 200
12.5 µM (≈ 21.5 µg/mL)	3.1 µM (≈ 5.34 µg/mL)	7.1	C[C@@H](c1ccccc1)N(CC(=O)N(CCCCN)CC(=O)N(CC(=O)N(CC(N)=O)Cc1ccccc1)Cc1ccccc1)C(=O)CN(Cc1ccccc1)C(=O)CN(CCCCN)C(=O)CN(Cc1ccccc1)C(=O)CN(Cc1ccccc1)C(=O)CN(CCCCN)C(=O)CN(Cc1ccccc1)C(=O)CN(Cc1ccccc1)C(=O)CNCCCCN [compound 8] (H-[Nlys][Nphe][Nphe][Nlys][Nphe][Nphe][Nlys][Nphe][Nspe][Nlys][Nphe][Nphe]-NH2)	25 µM (≈ 43 µg/mL)	3.1 µM (≈ 5.34 µg/mL)	88.5	> 200
12.5 µM (≈ 21.5 µg/mL)	3.1 µM (≈ 5.34 µg/mL)	4.3	C[C@@H](c1ccccc1)N(CC(=O)N(CC(N)=O)Cc1ccccc1)C(=O)CN(CCCCN)C(=O)CN(Cc1ccccc1)C(=O)CN(Cc1ccccc1)C(=O)CN(CCCCN)C(=O)CN(Cc1ccccc1)C(=O)CN(Cc1ccccc1)C(=O)CN(CCCCN)C(=O)CN(Cc1ccccc1)C(=O)CN(Cc1ccccc1)C(=O)CNCCCCN [compound 9] (H-[Nlys][Nphe][Nphe][Nlys][Nphe][Nphe][Nlys][Nphe][Nphe][Nlys][Nspe][Nphe]-NH2)	25 µM (≈ 43 µg/mL)	3.1 µM (≈ 5.34 µg/mL)	54.4	> 200
12.5 µM (≈ 21.5 µg/mL)	3.1 µM (≈ 5.34 µg/mL)	–	C[C@@H](c1ccccc1)N(CC(N)=O)C(=O)CN(Cc1ccccc1)C(=O)CN(CCCCN)C(=O)CN(Cc1ccccc1)C(=O)CN(Cc1ccccc1)C(=O)CN(CCCCN)C(=O)CN(Cc1ccccc1)C(=O)CN(Cc1ccccc1)C(=O)CN(CCCCN)C(=O)CN(Cc1ccccc1)C(=O)CN(Cc1ccccc1)C(=O)CNCCCCN [compound 10]	25 µM (≈ 43 µg/mL)	3.1 µM (≈ 5.34 µg/mL)	103.3	> 200
12.5 µM (≈ 21.7 µg/mL)	3.1 µM (≈ 5.38 µg/mL)	6.4	C[C@@H](c1ccccc1)N(CC(N)=O)C(=O)CN(Cc1ccccc1)C(=O)CN(CCCCN)C(=O)CN(Cc1ccccc1)C(=O)CN(Cc1ccccc1)C(=O)CN(CCCCN)C(=O)CN(Cc1ccccc1)C(=O)CN(Cc1ccccc1)C(=O)CN(CCCCN)C(=O)CN(Cc1ccccc1)C(=O)CN(C(=O)CNCCCCN)[C@@H](C)c1ccccc1 [compound 12]	25 µM (≈ 43.4 µg/mL)	3.1 µM (≈ 5.38 µg/mL)	79.7	> 200
12.5 µM (≈ 21.9 µg/mL)	1.6 µM (≈ 2.8 µg/mL)	4.3	C[C@@H](c1ccccc1)N(CC(N)=O)C(=O)CN(C(=O)CN(CCCCN)C(=O)CN(Cc1ccccc1)C(=O)CN(Cc1ccccc1)C(=O)CN(CCCCN)C(=O)CN(Cc1ccccc1)C(=O)CN(Cc1ccccc1)C(=O)CN(CCCCN)C(=O)CN(Cc1ccccc1)C(=O)CN(C(=O)CNCCCCN)[C@@H](C)c1ccccc1)[C@@H](C)c1ccccc1 [compound 14]	12.5 µM (≈ 21.9 µg/mL)	1.6 µM (≈ 2.8 µg/mL)	53.9	199.6
–	1.6 µM (≈ 2.82 µg/mL)	–	C[C@@H](c1ccccc1)N(CC(=O)N(CCCCN)CC(=O)N(CC(=O)N(CC(=O)N(CCCCN)CC(=O)N(CC(=O)N(CC(N)=O)Cc1ccccc1)Cc1ccccc1)[C@@H](C)c1ccccc1)[C@@H](C)c1ccccc1)C(=O)CN(C(=O)CN(CCCCN)C(=O)CN(Cc1ccccc1)C(=O)CN(Cc1ccccc1)C(=O)CNCCCCN)[C@@H](C)c1ccccc1 [compound 16] (H-[Nlys][Nphe][Nphe][Nlys][Nspe][Nspe][Nlys][Nspe][Nspe][Nlys][Nphe][Nphe]-NH2)	6.3 µM (≈ 11.1 µg/mL)	3.1 µM (≈ 5.47 µg/mL)	53.0	> 200
